The source of these data is ChEMBL document CHEMBL1141602, “Chemical library and structure-activity relationships of 11-demethyl-12-oxo calanolide A analogues as anti-HIV-1 agents” (J Med Chem, 2008).

For orientation: inhibition means the drop in the measured response relative to a control, in per cent. A lower inhibition goes with a response near the control. Usually MIC stands for the smallest concentration in the dilution series that meets the test's criterion for growth inhibition. A lower MIC goes with a more susceptible organism. What is called EC50 is the concentration that produces a half-maximal response. Read a low EC50 as higher potency in that assay.

Series [1] relates to Human immunodeficiency virus 1. As to the kind of experiment: Antiviral activity against HIV1 at 1.0 uM. In kind it is functional.
Series [2] concerns Mycobacterium tuberculosis. The series can be described thus: Antimicrobial activity against Mycobacterium tuberculosis. The series is classed as functional.
Series [3] concerns Human immunodeficiency virus 1. As to the kind of experiment: Antiviral activity against HIV1. In kind it is functional, organism-based.
Series [4] deals with HOS. The series can be described thus: Toxicity in CD4 expressing HOS cells at 10 uM. The series is classed as cell-based. To be noted: human.
The nature of series [5]: Therapeutic index, ratio of IC50 for HOS cells to EC50 for human HIV1. The series is classed as cell-based. The settings on record: read-out: Ratio IC50/EC50.

In brackets after ≈: the same amount, converted by molar mass. A value given as a limit tells only on which side of the number the result lay.

`CCCCC1C=Cc2c3c(c4oc(=O)cc(CCC(F)(F)F)c4c2O1)C(=O)CC(C)O3` (stereo unspecified): 1 µM produced 53.6% inhibition in series [1]. Compound `CCCc1cc(=O)oc2c3c(c4c(c12)OC(C)(C)C=C4)O[C@H](C)[C@@H](C)[C@@H]3O` [CALANOLIDE A] registered an MIC in series [2] of 3.13 µg/mL (≈ 8.45 µM). Moreover, it took 100 nM to reach a half-maximal effect in series [3] (EC50). Turning to `CCc1c(F)c(=O)oc2c3c(c4c(c12)OC(C)C=C4)OC(C)CC3=O` (stereo unspecified), the inhibition at 1 µM in series [1] came out at 39.5%. The same measure, in the same setting: next, `C/C=C/C1C=Cc2c3c(c4oc(=O)cc(CC)c4c2O1)C(=O)CC(C)O3` (stereo unspecified): 56.4%. `CCCc1cc(=O)oc2c3c(c4c(c12)OC(C)(C)C=C4)OC(C)CC3O` (racemic) displayed an EC50 in series [3] of 310 nM. With `CCCc1cc(=O)oc2c3c(c4c(c12)OC(C)(C)C=C4)OC(C)CC3=O` (racemic), in series [1], the inhibition at 1 µM was 73.1%.

With `CCCc1c(Cl)c(=O)oc2c3c(c4c(c12)OCC(C)=C4)OC(C)CC3=O` (stereo unspecified), 1 µM produced 49.1% inhibition in series [1]. The compound `CCCc1c(F)c(=O)oc2c3c(c4c(c12)OC(C)(C)C=C4)OC(C)CC3=O` (stereo unspecified) came in with an inhibition at 1 µM in series [1] of 45.3%. The Activity in series [4] turned out to be 10%. `CCCc1c(Cl)c(=O)oc2c3c(c4c(c12)OCC(C)C4OCC)OC(C)CC3=O` (stereo unspecified): the inhibition at 1 µM in series [1] came out at 51.7%. Same read-out and setting: next, `CCCc1cc(=O)oc2c1c1c(c3occc(=O)c32)C=CC(C)(C)O1`: 64.9%.

The compound `CCCc1cc(=O)oc2c3c(c4c(c12)OC(CCC)C=C4)OC(C)CC3=O` (stereo unspecified) returned an inhibition at 1 µM in series [1] of 54.1%.

`C/C=C/C1C=Cc2c3c(c4oc(=O)c(F)c(CC)c4c2O1)C(=O)CC(C)O3` (stereo unspecified) registered an inhibition at 1 µM in series [1] of 46.2%. For the compound `CCCc1c(Cl)c(=O)oc2c3c(c4c(c12)OC(c1ccccc1)C=C4)OC(C)CC3=O` (stereo unspecified), in series [1], at 1 µM the inhibition was 96.3%. For the same compound, the Activity in series [4] is above 80%. The compound `CCCc1cc(=O)oc2c3c(c4c(c12)OC(C)(C)C=C4)OC(CBr)CC3=O` (stereo unspecified) returned an inhibition at 1 µM in series [1] of 93.5%. For the same compound, in series [5], the selectivity ratio is above 10500. In series [3], a half-maximal effect (EC50) was put at 2.85 nM. `CCc1c(F)c(=O)oc2c3c(c4c(c12)OC(C)(C)C=C4)OC(C)CC3=O` (stereo unspecified): the Activity in series [4] turned out to be 10%. `CCCc1cc(=O)oc2c3c(c4c(c12)OC(c1ccccc1[N+](=O)[O-])C=C4)OC(C)CC3=O` (stereo unspecified): 1 µM produced 52.6% inhibition in series [1]. As to `CCCCC1C=Cc2c3c(c4oc(=O)cc(CCC)c4c2O1)C(=O)C(C)CO3` (stereo unspecified), at 1 µM the inhibition in series [1] was 35.2%. In addition, the Activity in series [4] was below 10%. In the same order, the values of `CCCCCC1CC(=O)c2c(c3c(c4c(CCC)cc(=O)oc24)OC(C)(C)C=C3)O1` (stereo unspecified) are 46.4% and below 10%. `CCCc1cc(=O)oc2c3c(c4c(c12)OC(C)(C)C=C4)O[C@H]1CCCC[C@@H]1C3=O` (relative stereo) came in with an inhibition at 1 µM in series [1] of 40%. The compound also gave an Activity in series [4] below 10%. As to `CCCc1c(Cl)c(=O)oc2c3c(c4c(c12)OC(C)C=C4)OC(C)CC3=O` (stereo unspecified), the inhibition at 1 µM in series [1] is 55.7%. In series [1], `C/C=C/C1C=Cc2c3c(c4oc(=O)c(Cl)c(CCC)c4c2O1)C(=O)CC(C)O3` (stereo unspecified) had an inhibition at 1 µM of 57.3%. Regarding `CCc1cc(=O)oc2c3c(c4c(c12)OC(c1ccccc1)C=C4)OC(C)CC3=O` (stereo unspecified), in series [1], the inhibition at 1 µM was 96.4%. In series [4], this compound gave an Activity of 10%. Regarding `CCc1cc(=O)oc2c3c(c4c(c12)OC(C)C=C4)OC(C)CC3=O` (stereo unspecified), 1 µM produced 57.4% inhibition in series [1]. Still for that read-out and setting: to `CC1CC(=O)c2c(c3c(c4c(-c5ccc([N+](=O)[O-])cc5)cc(=O)oc24)OC(C)(C)C=C3)O1` (stereo unspecified) belongs 51.9%. Same read-out and setting: next, `CCCc1c(F)c(=O)oc2c3c(c4c(c12)OCC(C)=C4)OC(C)CC3=O` (stereo unspecified): 47.1%; `CC1CC(=O)c2c(c3c(c4c(CN5CCN(C)CC5)cc(=O)oc24)OC(C)(C)C=C3)O1` (stereo unspecified): 48.3%. `CCCc1cc(=O)oc2c3c(c4c(c12)OC(C)(C)C=C4)O[C@@H]1CCCC[C@@H]1C3=O` (relative stereo) registered an inhibition at 1 µM in series [1] of 59.3%. The same compound gave an Activity in series [4] below 10%. In the case of `CCc1cc(=O)oc2c3c(c4c(c12)OC(C)(C)C=C4)OC(C)CC3=O` (stereo unspecified), the inhibition at 1 µM in series [1] was 73.2%. Also, the selectivity ratio in series [5] is above 1000. In series [3], this compound registered an EC50 of 270 nM. In turn, `CCCc1cc(=O)oc2c3c(c4c(c12)OC(C)C=C4)OCC(C)C3=O` (stereo unspecified) yielded an inhibition at 1 µM in series [1] of 62.4%. This compound registered an Activity in series [4] of 10%. As to `CCCc1cc(=O)oc2c3c(c4c(c12)OC(c1ccccc1)C=C4)OCC(C)C3=O` (stereo unspecified), in series [4], the Activity is below 10%. In series [1], `CC1CC(=O)c2c(c3c(c4c(CCC(F)(F)F)cc(=O)oc24)OC(c2ccccc2)C=C3)O1` (stereo unspecified) returned an inhibition at 1 µM of 47.6%. `CCCc1c(Cl)c(=O)oc2c3c(c4c(c12)OC(C)(C)C=C4)OC(C)CC3=O` (stereo unspecified) had an inhibition at 1 µM in series [1] of 68.1%. The selectivity ratio in series [5] stood at 243. The same compound displayed an EC50 in series [3] of 370 nM.

For `COc1cc(-c2cc(=O)oc3c4c(c5c(c23)OC(C)(C)C=C5)OC(C)CC4=O)cc(OC)c1OC` (stereo unspecified), in series [1], the inhibition at 1 µM is 58%. Still for that read-out and setting: next, `CCCc1cc(=O)oc2c3c(c4c(c12)OC(C)(C)C=C4)OC(c1ccc(C)cc1)CC3=O` (stereo unspecified): 57%; `C/C=C/C1C=Cc2c3c(c4oc(=O)cc(CCC)c4c2O1)C(=O)C(C)CO3` (stereo unspecified): 37.8%. On to `CCCc1cc(=O)oc2c3c(c4c(c12)OC(C)(C)C=C4)OC(C)(C)CC3=O` [114, 10,10-DIMETHYL-11-DEMETHYL-12-OXO CALANOLIDE A], for which, in series [1], the inhibition at 1 µM was 68.3%. In addition, the selectivity ratio in series [5] amounted to 47. Further, a half-maximal response in series [3] (EC50) required 640 nM. `CCCCC1C=Cc2c3c(c4oc(=O)cc(CC)c4c2O1)C(=O)CC(C)O3` (stereo unspecified): in series [1], the inhibition at 1 µM came out at 96.7%. This compound also came in with an Activity in series [4] of 10%. Take `CCCC1C=Cc2c3c(c4oc(=O)cc(CC)c4c2O1)C(=O)CC(C)O3` (stereo unspecified): at 1 µM the inhibition in series [1] was 97%. This compound also gave an Activity in series [4] of 10%. In the case of `CCCc1cc(=O)oc2c3c(c4c(c12)OC(c1ccccc1[N+](=O)[O-])CC4OCC)OC(C)CC3=O` (stereo unspecified), in series [1], the inhibition at 1 µM is 61%. In series [4], this compound yielded an Activity below 10%. Compound `CC1CC(=O)c2c(c3c(c4c5c(c(=O)oc24)CCCC5)OC(C)(C)C=C3)O1` (stereo unspecified) registered an inhibition at 1 µM in series [1] of 67%. For `CCCc1cc(=O)oc2c3c(c4c(c12)OC(C)(C)C=C4)OCC(C)C3=O` (stereo unspecified), the inhibition at 1 µM in series [1] turned out to be 38.9%. The compound further had an Activity in series [4] of 10%.

In turn, `CCCCc1cc(=O)oc2c3c(c4c(c12)OC(C)C=C4)OC(C)CC3=O` (stereo unspecified) came in with an inhibition at 1 µM in series [1] of 75.4%. Regarding `CCCCc1cc(=O)oc2c3c(c4c(c12)OC(c1ccccc1)C=C4)OC(C)CC3=O` (stereo unspecified), testing at 1 µM in series [1] gave an inhibition of 96.4%. In series [4], this compound returned an Activity of 10%. On the same counts, the results for `CCCc1cc(=O)oc2c3c(c4c(c12)OC(C)(C)C=C4)OC(c1ccccc1)CC3=O` (stereo unspecified) are 62.7% and below 10%. `CCCc1cc(=O)oc2c3c(c4c(c12)OC(C)(C)C=C4)OC(CCC)CC3=O` (stereo unspecified): in series [1], 1 µM produced 61.9% inhibition. In series [4], this compound yielded an Activity below 10%. Moreover, the selectivity ratio in series [5] was found to be 102. The EC50 in series [3] was found to be 32.5 nM.
